The source of these data is patent US8283465B2, “Triazolopyridine compound, and action thereof as prolyl hydroxylase inhibitor or erythropoietin production-inducing agent” (Japan Tobacco Inc., priority 2009, dated 2012).

Molecules are shown by their SMILES. Where a name gives a salt, the structure may show the parent alone.

In experiment [1] the target is T1, human PHD2 (Homo sapiens, UniProt Q9GZT9).
T1 construct: made in house; host or cells: Sf9 insect cells (baculovirus, pVL1393 vector)
In words: Measurement of human PHD inhibitory activity (TR-FRET, hydroxylation of HIF-1α partial peptide). The experiment is classed as biochemical. As to conditions: human PHD2 enzyme 1 nM, 25° C. 30 min, values consisting solely of numbers; read-out: IC50 (μM) in vitro, human PHD inhibitory activity. In a few lines:
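FLAG-tagged human PHD2 from Sf9 cells (1 nM final) hydroxylates a biotinylated 19-residue HIF-1α peptide, 30 min at 25° C. After EDTA stop, hydroxyproline detected by TR-FRET using Eu/Xlent-labelled VBC complex; % inhibition relative to no-enzyme and no-compound wells.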

Experiment [2] deals with human EPO production, Hep3B cells. In words: Human EPO production activity in Hep3B cells (EPO-ELISA of culture supernatant). The experiment is classed as cell-based. Particulars: for EC50: Homo sapiens, 24 hr incubation, values consisting solely of numbers, read-out: EC50 (μM) in vitro, human EPO production activity; for production activity (%) at 30 μM in vitro, human EPO: 24 hr, values containing %, relative to maximum production. In a few lines: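 Hep3B cells were dosed with compound 24 h after plating and incubated 24 h at 37° C. Secreted EPO in supernatant was measured by ELISA. Values are EC50, or activity (%) at 30 μM scaled between untreated and maximum production.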

T1 sequence (Q9GZT9 whole entry): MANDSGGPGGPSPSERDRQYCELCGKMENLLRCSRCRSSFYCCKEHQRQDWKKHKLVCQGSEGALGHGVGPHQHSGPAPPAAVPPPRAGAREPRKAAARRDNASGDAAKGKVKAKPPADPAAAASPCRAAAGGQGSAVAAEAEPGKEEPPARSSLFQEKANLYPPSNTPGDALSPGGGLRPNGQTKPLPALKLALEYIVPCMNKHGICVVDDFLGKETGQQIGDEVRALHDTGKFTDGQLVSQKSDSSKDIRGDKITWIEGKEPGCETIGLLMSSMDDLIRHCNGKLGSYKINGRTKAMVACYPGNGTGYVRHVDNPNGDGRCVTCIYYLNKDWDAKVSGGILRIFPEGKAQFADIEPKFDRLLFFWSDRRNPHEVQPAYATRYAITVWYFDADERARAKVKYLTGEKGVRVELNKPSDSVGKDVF

Regarding `Cc1cc(F)cc(-c2cc(O)c(C(=O)NCC(=O)O)c3ncnn23)c1` [Example 79, {[5-(3-fluoro-5-methylphenyl)-7-hydroxy[1,2,4]triazolo[1,5-a]pyridine-8-carbonyl]amino} acetic acid hydrochloride], the half-inhibitory concentration (IC50) in experiment [1] was 0.23 µM. The EC50 in experiment [2] was determined as 7.8 µM.

Take `O=C(O)CNC(=O)c1c(O)cc(CCC2CCC2)n2ncnc12` [Example 54, {[5-(2-cyclobutylethyl)-7-hydroxy[1,2,4]triazolo[1,5-a]pyridine-8-carbonyl]amino} acetic acid hydrochloride]: in experiment [1], the IC50 was 0.44 µM. The EC50 in experiment [2] is 4.5 µM.

Turning to `O=C(O)CNC(=O)c1c(O)cc(-c2ccc(F)c(Cl)c2)c2ncnn12` [Example 94, {[8-(3-chloro-4-fluorophenyl)-6-hydroxy[1,2,4]triazolo[1,5-a]pyridine-5-carbonyl]amino} acetic acid hydrochloride], the IC50 in experiment [1] is 0.11 µM. Further, the EC50 in experiment [2] stood at 9.7 µM.

As to `O=C(O)CNC(=O)c1c(O)c(Cl)c(CCc2ccccc2)n2ncnc12` [Example 80, [(6-chloro-7-hydroxy-5-phenethyl[1,2,4]triazolo[1,5-a]pyridine-8-carbonyl)amino] acetic acid hydrochloride], the IC50 in experiment [1] came out at 0.71 µM. The concentration giving a half-maximal response (EC50) in experiment [2] was determined as 23.3 µM.

With `O=C(O)CNC(=O)c1c(O)cc(CCc2ccc(C3CC3)cc2)n2ncnc12` [Example 38, ({5-[2-(4-cyclopropyl-phenyl)ethyl]-7-hydroxy[1,2,4]trizazolo[1,5-a]pyridine-8-carbonyl}amino)acetic acid hydrochloride], the IC50 in experiment [1] was 0.59 µM. Further, the EC50 in experiment [2] was 8.7 µM.

Take `O=C(O)CNC(=O)c1c(O)cc(Cc2ccc(F)cc2)n2ncnc12` [Example 63, acetic acid hydrochloride]: in experiment [1], the IC50 stood at 0.36 µM. In addition, the EC50 in experiment [2] was 19.7 µM.

As to `O=C(O)CNC(=O)c1c(O)cc(-c2cc(F)cc(Cl)c2)c2ncnn12` [Example 105, {[8-(3-chloro-5-fluorophenyl)-6-hydroxy[1,2,4]triazolo[1,5-a]pyridine-5-carbonyl]amino} acetic acid hydrochloride], the IC50 in experiment [1] turned out to be 0.1 µM. The concentration giving a half-maximal response (EC50) in experiment [2] came to 5.9 µM.

`CC(C)(C)CCc1cc(O)c(C(=O)NCC(=O)O)n2ncnc12` [Example 8, {[8-(3,3-dimethyl-butyl)-6-hydroxy[1,2,4]triazolo[1,5-a]pyridine-5-carbonyl]amino}acetic acid hydrochloride]: the half-maximal inhibitory concentration (IC50) in experiment [1] came out at 0.49 µM. The EC50 in experiment [2] came to 13.4 µM.

Turning to `O=C(O)CNC(=O)c1c(O)cc(-c2cc(F)cc(C(F)(F)F)c2)c2ncnn12` [Example 104, {[8-(3-fluoro-5-trifluoromethyl-phenyl)-6-hydroxy[1,2,4]triazolo[1,5-a]pyridine-5-carbonyl]amino} acetic acid hydrochloride], the IC50 in experiment [1] is 0.19 µM. Further, in experiment [2], the half-maximal effective concentration (EC50) came to 6.3 µM.

`O=C(O)CNC(=O)c1c(O)cc(-c2cc(Cl)cc(Cl)c2)n2ncnc12` [Example 46, {[5-(3,5-dichlorophenyl)-7-hydroxy[1,2,4]triazolo[1,5-a]pyridine-8-carbonyl]amino}acetic acid hydrochloride]: the IC50 in experiment [1] was 0.29 µM. Moreover, in experiment [2], the EC50 is 4.8 µM.

Turning to `O=C(O)CNC(=O)c1c(O)cc(C2CCCC2)n2ncnc12` [Example 30, [(5-cyclopentyl-7-hydroxy[1,2,4]triazolo[1,5-a]pyridine-8-carbonyl)amino]acetic acid hydrochloride], the IC50 in experiment [1] stood at 0.98 µM. In addition, the EC50 in experiment [2] came out at 15.4 µM.

Take `Cl.O=C(O)CNC(=O)c1c(O)c(-c2ccccc2)cn2c(-c3ccccc3)nnc12` [Example 111, [(7-hydroxy-3,6-diphenyl[1,2,4]triazolo[4,3-a]pyridine-8-carbonyl)amino] acetic acid hydrochloride]: in experiment [1], the half-inhibitory concentration (IC50) turned out to be 1.1 µM. For the same compound, the “production activity (%) at 30 μM in vitro, human EPO” value in experiment [2] was determined as 0%.

In the case of `O=C(O)CNC(=O)c1c(O)cc(C2=CCCCC2)c2ncnn12` [Example 93, [(8-cyclohex-1-enyl-6-hydroxy[1,2,4]triazolo[1,5-a]pyridine-5-carbonyl)amino] acetic acid hydrochloride], the IC50 in experiment [1] was 0.51 µM. In addition, in experiment [2], the concentration for a half-maximal effect (EC50) turned out to be 16 µM.

For `CCCCCCc1cc(O)c(C(=O)NCC(=O)O)c2ncnn12.Cl` [Example 73, [(5-hexyl-7-hydroxy[1,2,4]triazolo[1,5-a]pyridine-8-carbonyl)amino] acetic acid hydrochloride], in experiment [1], the half-inhibitory concentration (IC50) came to 7.09 µM. For the same compound, the “production activity (%) at 30 μM in vitro, human EPO” value in experiment [2] is on record as 34%.

Turning to `O=C(O)CNC(=O)c1c(O)cc(CCC2CCCC2)n2ncnc12` [Example 60, {[5-(2-cyclopentylethyl)-7-hydroxy[1,2,4]triazolo[1,5-a]pyridine-8-carbonyl]amino} acetic acid hydrochloride], the half-inhibitory concentration (IC50) in experiment [1] was determined as 0.74 µM. In experiment [2], the concentration for a half-maximal effect (EC50) is 8.4 µM.

For the compound `O=C(O)CNC(=O)c1c(O)cc(-c2ccccc2F)n2ncnc12` [Example 61, {[5-(2-fluorophenyl)-7-hydroxy[1,2,4]triazolo[1,5-a]pyridine-8-carbonyl]amino} acetic acid hydrochloride], in experiment [1], the IC50 worked out at 0.22 µM. The EC50 in experiment [2] was determined as 28.8 µM.
